Test results published in publication PMC12115147, “Identification of 3-[(4-Acetylphenyl)(4-Phenylthiazol-2-Yl)Amino]Propanoic Acid Derivatives as Promising Scaffolds for the Development of Novel Anticancer Candidates Targeting SIRT2 and EGFR” (Pharmaceuticals, 2025).
Read-outs that look alike come from different tables or passages of the source. Values belong to the compound of their own block, whether it stands above or below them.

Assays:
[1] = system: A549 human lung adenocarcinoma cells; details: for A549 cell viability: 100 µM
Experimental: (§2) The dissolved compounds were then manually dispensed into deep 96-well plates, sealed, and stored at −80 °C until the day of the experiment. For the in vitro antiproliferative activity screening, the compounds were thawed at room temperature, protected from light, and the aliquots were diluted in complete cell culture media to achieve a final concentration of 100 µM and used for the in vitro assays.
(§3) All cells were cultivated in Dulbecco’s Modified Eagle Medium/Nutrient Mixture F-12 (DMEM/F-12) (Gibco, Waltham, MA, USA), 10% fetal bovine serum (FBS) (Gibco, Waltham, MA, USA), 100 U/mL penicillin, and 100 μg/mL streptomycin (P/S) (Gibco, Waltham, MA, USA). Culturing conditions were maintained at 37 °C with a humidified atmosphere containing 5% CO2. The culture medium was refreshed every 2–3 days, and cells were passaged upon reaching 70–80% confluence.
(§4) The in vitro inhibitory effects of the compounds were assessed using the MTT assay [40, 41, 42, 43, 44]. Briefly, cells were plated in 96-well plates at a density of 1 × 10^4 cells per well. After allowing the cells to adhere overnight at 37 °C in 5% CO2, they were treated with compounds at concentration of 100 µM in triplicate. Following a 20 h incubation, MTT reagent was added, and the cells were further incubated for 4 h. The resulting formazan was solubilized in anhydrous DMSO, and absorbance was measured at 570 nm using a microplate reader. Cell viability was calculated using the following formula: ([AE − AB]/[AC − AB]) × 100%, where AE, AC, and AB represent the absorbance values of experimental samples, untreated controls, and blank wells, respectively. Data analysis was performed using GraphPad Prism or QuickCalcs (2.0 version).
(§5) The IC50 values, defined as the concentration of compound required to reduce cell viability by 50%, were determined using a dose–response curve. The data were fitted to a nonlinear regression model (GraphPad Prism version 9.0, GraphPad Software, San Diego, CA, USA) to calculate the IC50 values for each compound tested in triplicate.

[2] = system: HEK293 human embryonic kidney cells; experiment: MTT cytotoxicity in non-cancerous HEK293 cells; format: cell-based; details: 24 h
Experimental: as §3, §4, §5

[3] = system: A549 human lung adenocarcinoma cells; experiment: cells; details: A549, 24 h; for viability at 100 µM: read-out: A549 cell viability
Experimental: as §2, §3, §4, §5

H69AR cells = experiment: MTT cell viability assay in anthracycline-resistant H69AR cells; format: cell-based; details: Homo sapiens, 24 h, normalized to untreated control
[4] = system: A549 agarose-based spheroids; experiment: LDH release cytotoxicity assay in A549 3D spheroids; format: cell-based, human; details: 100 µM, 24 h
Experimental: (§1) A549 tumor spheroids were generated using an agarose-based technique with modifications. A549 cells were plated at a density of 2.5 × 10^5 cells/well in 96-well plates pre-coated with 50 µL of 1% agarose in Dulbecco’s Phosphate-Buffered Saline (DPBS). The plates were incubated for 48 h to allow spheroid formation. After 48 h, the spheroids were treated with 100 µM of compounds dissolved in DMEM/F12 supplemented with 10% FBS and 0.25% DMSO for 24 h.
A549 tumor spheroids were generated in 96-well plates pre-coated with 50 µL of 1% agarose in Dulbecco’s Phosphate-Buffered Saline (DPBS), as described previously. After 48 h of spheroid formation, the spheroids were treated with compounds dissolved in DMEM/F12 supplemented with 10% FBS and 0.25% DMSO. After a 24 h incubation, spheroid-conditioned media were collected by centrifuging the plates at 1000× g for 2 min to remove the spheroids. Then, 50 µL of the supernatant was transferred to a new 96-well plate and mixed with LDH assay reagent (Pierce LDH Cytotoxicity Assay Kit, Thermo Fisher Scientific, Waltham, MA, USA) according to the manufacturer’s instructions. A commercial maximum LDH control was used to normalize the results. The percentage of LDH release was calculated based on the absorbance readings, using the formula: (sample absorbance − blank absorbance)/(maximum control absorbance − blank absorbance) × 100%.

[5] = system: A549 agarose-based spheroids; experiment: AO/PI staining of A549 spheroids; format: cell-based, human; details: 100 µM, 24 h
Experimental: as §1
After treatment with compounds, spheroids were incubated with 5 µg/mL acridine orange and 5 µg/mL propidium iodide for 30 min at 37 °C in a humidified incubator. Following incubation, the spheroids were washed twice with DPBS to remove excess stain. The stained spheroids were then visualized using the EVOS cell imaging system (Thermo Fisher Scientific, Waltham, MA, USA). The fluorescent images were captured, and the viability of the spheroids was assessed based on the differential staining patterns, with live cells showing green fluorescence (acridine orange) and dead cells displaying red fluorescence (propidium iodide).

[6] = system: H69 human lung carcinoma cells; experiment: MTT cell viability assay in H69 cells; format: cell-based; details: NCI-H69, 24 h, normalized to untreated control

Compound: 3,3′-{[(Phenylmethylene)bis(4-phenylthiazole-2,5-diyl)]bis[(4-acetylphenyl)azanediyl]}dipropionic acid [Compound 13]
A549 cell viability [1]: 57.6%

Compound: N.N.[Cl][Pt][Cl] [CP, cisplatin, reference compound]
IC50 ([1]; A549 cells, 24 h, MTT): 11.7 µM | IC50 [2]: 5.57 µM

Compound: CC(=O)c1ccc(N(CCC(=O)O)c2nc(-c3ccccc3)c(C(c3ccc(F)cc3)c3sc(N(CCC(=O)O)c4ccc(C(C)=O)cc4)nc3-c3ccccc3)s2)cc1 [Compound 14, 3,3′-/{[(4-Fluorophenyl)methylene]bis(4-phenylthiazole-5,2-diyl)}bis[(4 acetylphenyl)azanediyl]/dipropionic acid]
viability at 100 µM [3]: 47.8%

IC50 [3]: 5.42 µM
Compound: C/C(=N/O)c1ccc(N(CCC(=O)O)c2nc(-c3ccccc3)cs2)cc1 [Compound 21, 3-/{4-[1-(Hydroxyimino)ethyl]phenyl}(4-phenylthiazol-2-yl)amino/propanoic acid]
viability at 100 µM (H69AR cells): 23.5% | LDH release (cytotoxicity) [4]: 66.7% | IC50 ([2]; Homo sapiens): 14.6 µM | spheroid morphology and cell viability by AO/PI staining [5]: partial cell death | viability at 100 µM [3]: 35.3% | viability at 100 µM [6]: 18.3%

IC50 [3]: 2.47 µM
Compound: C/C(=N/O)c1ccc(N(CCC(=O)O)c2nc(-c3ccc(Cl)cc3)cs2)cc1 [Compound 22, 3-/[4-(4-Chlorophenyl)thiazol-2-yl]{4-[1-(hydroxyimino)ethyl]phenyl}amino/propanoic acid]
viability at 100 µM (H69AR cells): 26.6% | LDH release (cytotoxicity) [4]: 40.6% | IC50 ([2]; Homo sapiens): 38 µM | spheroid morphology and cell viability by AO/PI staining [5]: partial cell death | viability at 100 µM [3]: 37.6% | viability at 100 µM [6]: 33.9%

Compound: COC(=O)CCN(c1ccc(/C(C)=N\O)cc1)c1nc(-c2ccccc2)cs1 [Compound 23, Methyl 3-/{4-[1-(hydroxyimino)ethyl]phenyl}(4-phenylthiazol-2-yl)amino/propanoate]
viability at 100 µM [3]: 41.9%

Compound: COC(=O)CCN(c1ccc(/C(C)=N\O)cc1)c1nc(-c2ccc(Cl)cc2)cs1 [Compound 24, Methyl 3-/[4-(4-chlorophenyl)thiazol-2-yl]{4-[1-(hydroxyimino)ethyl]phenyl}amino/propanoate]
viability at 100 µM [3]: 77.7%

IC50 [3]: 8.05 µM
Compound: C/C(=N/O)c1ccc(N(CCC(=O)NN)c2nc(-c3ccccc3)cs2)cc1 [Compound 25, 3-/{4-[1-(Hydroxyimino)ethyl]phenyl}(4-phenylthiazol-2-yl)amino/propanehydrazide]
viability at 100 µM (H69AR cells): 48.4% | LDH release (cytotoxicity) [4]: 72.1% | IC50 ([2]; Homo sapiens): 10.7 µM | spheroid morphology and cell viability by AO/PI staining [5]: substantial disruption of spheroid architecture and widespread PI-positive staining | viability at 100 µM [3]: 25% | viability at 100 µM [6]: 27.7%

IC50 [3]: 25.4 µM
Compound: C/C(=N/O)c1ccc(N(CCC(=O)NN)c2nc(-c3ccc(Cl)cc3)cs2)cc1 [Compound 26, 3-/[4-(4-Chlorophenyl)thiazol-2-yl]{4-[1-(hydroxyimino)ethyl]phenyl}amino/propanehydrazide]
viability at 100 µM (H69AR cells): 15.4% | LDH release (cytotoxicity) [4]: 89.9% | IC50 ([2]; Homo sapiens): 13.8 µM | spheroid morphology and cell viability by AO/PI staining [5]: substantial disruption of spheroid architecture and widespread PI-positive staining | viability at 100 µM [3]: 30.5% | viability at 100 µM [6]: 67%

Compound: CC(=NNc1ccccc1)c1ccc(N(CCC(=O)O)c2nc(-c3ccccc3)cs2)cc1 [Compound 27, 3-/{4-[1-(2-Phenylhydrazineylidene)ethyl]phenyl}(4-phenylthiazol-2-yl)amino/propanoic acid]
A549 cell viability [1]: 82.4–100%

Compound: CC(=NNc1ccccc1)c1ccc(N(CCC(=O)O)c2nc(-c3ccc(Cl)cc3)cs2)cc1 [Compound 28, 3-/[4-(4-Chlorophenyl)thiazol-2-yl]{4-[1-(2-phenylhydrazineylidene)ethyl]phenyl}amino/propanoic acid]
A549 cell viability [1]: 82.4–100%

Compound: COC(=O)CCN(c1ccc(C(C)=O)cc1)c1nc(-c2ccccc2)cs1 [Compound 29, Methyl 3-[(4-acetylphenyl)(4-phenylthiazol-2-yl)amino]propanoate]
viability at 100 µM [3]: 82.4 to 100%

Compound: COC(=O)CCN(c1ccc(C(C)=O)cc1)c1nc(-c2ccc(Cl)cc2)cs1 [Compound 30, Methyl 3-{(4-acetylphenyl)[4-(4-chlorophenyl)thiazol-2-yl]amino}propanoate]
viability at 100 µM [3]: 82.4 to 100%

Compound: CC(=NN)c1ccc(N(CCC(=O)NN)c2nc(-c3ccccc3)cs2)cc1 [Compound 31, 3-{[4-(1-Hydrazineylideneethyl)phenyl](4-phenylthiazol-2-yl)amino}propanehydrazide]
viability at 100 µM [3]: 67.1%

Compound: CC(=NN)c1ccc(N(CCC(=O)NN)c2nc(-c3ccc(Cl)cc3)cs2)cc1 [Compound 32, 3-{[4-(4-Chlorophenyl)thiazol-2-yl][4-(1-hydrazineylideneethyl)phenyl]amino}propanehydrazide]
viability at 100 µM [3]: 84%

IC50 [3]: 3.02 µM
Compound: COc1cccc2c1C(=O)c1c(O)c3c(c(O)c1C2=O)C[C@@](O)(C(=O)CO)C[C@@H]3O[C@H]1C[C@H](N)[C@H](O)[C@H](C)O1 [DOX, doxorubicin, reference compound]
IC50 ([2]; Homo sapiens): 3.82 µM
